Results as given in the supplement of paper PMC10307832.

Tests used:
Assay in all cases: relative viability (nuclei count vs DMSO), 5 days (fraction); higher = more cells survive
AZ505 + Crizotinib = compound: C1CCC(CC1)N(CCNCCC2=C3C(=C(C=C2)O)NC(=O)CO3)C(=O)CCNCCC4=CC(=C(C=C4)Cl)Cl [AZ505] + C[C@@H](Oc1cc(-c2cnn(C3CCNCC3)c2)cnc1N)c1c(Cl)ccc(F)c1Cl [Crizotinib] (partner 1 µM)
Outline: (§1)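 After 5 days of treatment, lung cancer cells in 1536-well plates were fixed and stained in a single step (final 0.05% Triton X-100, 1% formaldehyde, 1 ug/ml Hoechst) and their nuclei counted on 4× images. Treatment had been applied by pin tool the day after seeding as one drug alone or as a fixed anchor-drug dose with five library-drug doses (not always all listed) in √10 steps. Relative viability is the nuclei count of treated wells divided by that of vehicle wells, and values are medians of duplicate plates.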

AZ505 + Luminespib = compound: C1CCC(CC1)N(CCNCCC2=C3C(=C(C=C2)O)NC(=O)CO3)C(=O)CCNCCC4=CC(=C(C=C4)Cl)Cl [AZ505] + CCNC(=O)c1noc(-c2cc(C(C)C)c(O)cc2O)c1-c1ccc(CN2CCOCC2)cc1 [Luminespib] (partner 0.01 µM)
Outline: as §1

AZ505 + Vorinostat = compound: C1CCC(CC1)N(CCNCCC2=C3C(=C(C=C2)O)NC(=O)CO3)C(=O)CCNCCC4=CC(=C(C=C4)Cl)Cl [AZ505] + O=C(CCCCCCC(=O)Nc1ccccc1)NO [Vorinostat] (partner 1 µM)
Outline: as §1

AZ505 + Bortezomib = compound: C1CCC(CC1)N(CCNCCC2=C3C(=C(C=C2)O)NC(=O)CO3)C(=O)CCNCCC4=CC(=C(C=C4)Cl)Cl [AZ505] + CC(C)C[C@H](NC(=O)[C@H](Cc1ccccc1)NC(=O)c1cnccn1)B(O)O [Bortezomib] (partner 0.002 µM)
Outline: as §1

Which results are given for UMC-11?
relative viability (AZ505 + Crizotinib; first compound 0.08 µM): 0.537; relative viability (AZ505 + Crizotinib; first compound 0.253 µM): 0.588; relative viability (AZ505 + Crizotinib; first compound 0.8 µM): 0.639; relative viability (AZ505 + Crizotinib; first compound 2.53 µM): 0.709; relative viability (AZ505 + Crizotinib; first compound 8 µM): 0.573; relative viability (AZ505 + Luminespib; first compound 0.08 µM): 1.05; relative viability (AZ505 + Luminespib; first compound 0.253 µM): 1.04; relative viability (AZ505 + Luminespib; first compound 0.8 µM): 0.996; relative viability (AZ505 + Luminespib; first compound 2.53 µM): 1.01; relative viability (AZ505 + Luminespib; first compound 8 µM): 1.03; relative viability (AZ505 + Vorinostat; first compound 0.08 µM): 0.371; relative viability (AZ505 + Vorinostat; first compound 0.253 µM): 0.433; relative viability (AZ505 + Vorinostat; first compound 0.8 µM): 0.367; relative viability (AZ505 + Vorinostat; first compound 2.53 µM): 0.434; relative viability (AZ505 + Vorinostat; first compound 8 µM): 0.397; relative viability (AZ505 + Bortezomib; first compound 0.08 µM): 0.661; relative viability (AZ505 + Bortezomib; first compound 0.253 µM): 0.872; relative viability (AZ505 + Bortezomib; first compound 0.8 µM): 0.68; relative viability (AZ505 + Bortezomib; first compound 2.53 µM): 0.734; relative viability (AZ505 + Bortezomib; first compound 8 µM): 0.939
